Experiment: Solubility of mitiglinide calcium hydrate (water, pH dependence)
Type: physicochemical
From the text: The inventors of the present invention conducted studies on orally disintegrating tablets containing mitiglinide calcium hydrate. […] Because the orally disintegrating tablets are designed to quickly disintegrate in the mouth, the influence of bitterness becomes a big factor when the active ingredient has a bitter taste. […] Under these circumstances, the inventors of the present invention conducted studies to provide a mitiglinide calcium hydrate-containing orally disintegrating tablet having reduced bitterness and capable of rapidly dissolving in the digestive tract.
As mentioned above, the mitiglinide calcium hydrate-containing preparation is administered immediately before meal, and preferably, rapidly dissolves upon administration to improve postprandial hyperglycemia. It is therefore desirable in an orally disintegrating tablet of the present invention that the tablet rapidly dissolves in the digestive tract, particularly in the stomach, after having disintegrated in the mouth. […] It is therefore preferable that an orally disintegrating tablet of the present invention rapidly dissolve in the stomach and water.

With O=C(O)[C@H](CC(=O)N1C[C@H]2CCCC[C@H]2C1)Cc1ccccc1 [mitiglinide calcium hydrate, (+)-Monocalcium bis[(2S,3a,7a-cis)-α-benzylhexahydro-γ-oxo-2-isoindolinebutyrate]dihydrate] the pH-dependent solubility (alkaline versus neutral to acidic pH) was “soluble in an alkaline pH range, and insoluble toward the neutral to acidic pH” and the Solubility in water (water) was “does not easily dissolve in water”.
